This note sets out measurements from patent publication US8426604B2 (Janssen Pharmaceutica NV, priority 2010, dated 2013).

Each structure is given as a SMILES string.

The target of experiment [1] is T1, ERR1 (also known as ERR-α or ERR-1) (Homo sapiens, UniProt P11474).
T1 sequence (P11474 193-421 limits assumed): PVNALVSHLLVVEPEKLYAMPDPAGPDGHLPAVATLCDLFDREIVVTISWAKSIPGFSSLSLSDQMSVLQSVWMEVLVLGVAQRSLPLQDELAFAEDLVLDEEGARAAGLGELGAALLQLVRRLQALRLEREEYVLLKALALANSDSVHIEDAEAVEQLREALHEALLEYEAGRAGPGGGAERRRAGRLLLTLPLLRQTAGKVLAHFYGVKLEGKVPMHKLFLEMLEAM
Nature of the experiment: TR-FRET assay (disruption of co-activator peptide binding). It counts as biochemical. The following applies: 6His-tagged ERR1LBD, GST-hSRC2 co-activator peptide; average of 3 independent experiments. As to the method:
Time-Resolved Fluorescence Resonance Energy Transfer (TR-FRET) experiments were performed to examine the functional response of ERR1 (also known as ERR-α or ERR-1) ligands. The TR-FRET assay described herein relied on the conformation of ERR1 for binding to a co-activator peptide: when a test compound binds to ERR1 and alters its conformation, it can disrupt the binding of the co-activator peptide. The components of this homogeneous secondary assay included: the ^6His-tagged-ERR1LBD, a GST-labeled-hSRC2 co-activator polypeptide and a fluorescent donor/acceptor pair from CIS bio international htrf/bioassays (Bedford, Mass.) using both an α-GST Europium Cryptate (Eu) label and an α^6His-XL665 (allophycocyanin) fluorophore.
For TR-FRET measurements, the reaction was buffered in 25 mM Tris pH 8, 2.5 mM Hepes, 20 mM KCl, 1 mM DTT, and 0.05 mg/mL BSA (-lipids). The final concentrations of reagents were 6 nM of ERR1LBD, 6 nM GST-SRC-2 peptide, 30 nM Eu cryptate, and 7.5 nM XL665. Reactions were allowed to reach equilibrium at 25° C. for 4-18 hours before collecting data on the Analyst from LJL Biosystems (Molecular Devices Sunnyvale, Calif.). As a time-resolved method, the samples were excited at […] and emission was collected for 1 ms at both 615 and 665 nm with delays of 400 and 75 μs, respectively. Dose response curves were fitted using a hyperbolic equation and the data reported is the average of 3 independent experiments.
On the technique in general: In TR-FRET formats the signal depends on donor and acceptor labels being close together.

Experiment [2] relates to Zucker fa/fa male rats. Nature of the experiment: Zucker fa/fa Rat Model Assay. It counts as in vivo. The settings on record: dosed orally once a day for 4 days, blood collected at day 5. The source says: Zucker fa/fa is a monogenic model of frank diabetes due to a mutation on the fa gene truncating the leptin receptor and preventing its interaction with its peptide hormone. This mutation results in a hyperphagic phenotype and the rodent develops obesity, hyperlipidemia, fasting hyperglycemia and insulin resistance. Zucker fa/fa male rats were received at four weeks of age and allowed to acclimate for one week. At five weeks of age the animals were single housed in cages in a temperature-controlled room with 12-hour light/dark cycle. The rats were allowed ad libitum access to water and food and throughout the study were maintained on a Purina 5008 diet. Animals were sorted based primarily on fed insulin levels and circulating triglycerides. Animals were dosed orally once a day in the morning for 4 days. The vehicle used was either 20% HPβCD (Hydroxypropyl Beta Cyclodextrin) or 15% Vitamin E/30% PEG-400 (Polyethylene Glycol 400). Fed insulin and triglycerides were measured using blood collected from the tail vein at day 5. Serum plasma samples were prepared by centrifugation in EDTA (Ethylenediaminetetraacetic acid) containing tubes, transferred into 96 well plates and stored at −80° C.

Regarding `CN(C1=NC(=O)/C(=C/c2ccc3c(cnn3Cc3ccc(Cl)cc3C(F)(F)F)c2)S1)[C@@H](CO)C(=O)O` [Compound 15, 2S-({5-[1-(4-Chloro-2-trifluoromethyl-benzyl)-1H-indazol-5-ylmethylene]-4-oxo-4,5-dihydro-thiazol-2-yl}-methyl-amino)-3-hydroxy-propionic acid], in experiment [1], the EC50 (commonly the concentration at which the effect is half-maximal) is 23 nM. In addition, in experiment [2], the “% Lowering Fed Insulin Levels” value is listed as 40% and the “% Lowering Fed Triglyceride Levels” value is on record as 41%. In experiment [1], `CN1CCC(N(C)C2=NC(=O)/C(=C/c3ccc4c(cnn4Cc4ccc(C(F)(F)F)cc4C(F)(F)F)c3)S2)CC1` [Compound 20, 5-[1-(2,4-Bis-trifluoromethyl-benzyl)-1H-indazol-5-ylmethylene]-2-[methyl-(1-methyl-piperidin-4-yl)-amino]-thiazol-4-one] had an EC50 of 18 nM. Also, in experiment [2], the “% Lowering Fed Insulin Levels” value is on record as 40% and the “% Lowering Fed Triglyceride Levels” value is 34%.

`CN(C1=NC(=O)/C(=C/c2ccc3c(cnn3Cc3ccc(C(F)(F)F)cc3C(F)(F)F)c2)S1)C1CCN(CC(N)=O)CC1` [Compound 52, 2-(4-{[-5-({1-[2,4-Bis(trifluoromethyl)benzyl]-1H-indazol-5-yl}methylidene)-4-oxo-4,5-dihydro-1,3-thiazol-2-yl](methyl)amino}piperidin-1-yl)acetamide] displayed a concentration giving a half-maximal response (EC50) in experiment [1] of 13 nM. Besides, in experiment [2], the “% Lowering Fed Insulin Levels” value is 30% and the “% Lowering Fed Triglyceride Levels” value amounted to 38%. As for `CN(C1=NC(=O)/C(=C/c2ccc3c(cnn3Cc3ccc(Cl)cc3C(F)(F)F)c2)S1)[C@H]1CCNC[C@H]1F` [Compound 54, 5-({1-[4-Chloro-2-(trifluoromethyl)benzyl]-1H-indazol-5-yl}methylidene)-2-{[(3R,4S)-3-fluoropiperidin-4-yl](methyl)amino}-1,3-thiazol-4(5H)-one], in experiment [1], the EC50 is 21 nM. In experiment [1], `CN(C1=NC(=O)/C(=C/c2ccc3c(cnn3Cc3ccc(Cl)cc3C(F)(F)F)c2)S1)[C@H]1CCN(CC(N)=O)C[C@H]1F` [Compound 55, 2-[(3R,4S)-4-{[-5-({1-[4-Chloro-2-(trifluoromethyl)benzyl]-1H-indazol-5-yl}methylidene)-4-oxo-4,5-dihydro-1,3-thiazol-2-yl](methyl)amino}-3-fluoropiperidin-1-yl]acetamide] displayed an EC50 of 13 nM. In the case of `CN(C1=NC(=O)/C(=C/c2ccc3c(cnn3Cc3ccc(C(F)(F)F)cc3C(F)(F)F)c2)S1)[C@@H]1CCN(CC(N)=O)C1` [Compound 56, 2-[(3R)-3-{[5-({1-[2,4-Bis(trifluoromethyl)benzyl]-1H-indazol-5-yl}methylidene)-4-oxo-4,5-dihydro-1,3-thiazol-2-yl](methyl)amino}pyrrolidin-1-yl]acetamide], in experiment [1], a half-maximal response (EC50) required 15 nM.

Take `CN(C1=NC(=O)/C(=C/c2ccc3c(cnn3Cc3ccc(Cl)cc3C(F)(F)F)c2)S1)[C@@H]1CCN(CC(N)=O)C1` [Compound 57, 2-[(3R)-3-({5-[1-(4-Chloro-2-trifluoromethyl-benzyl)-1H-indazol-5-ylmethylene]-4-oxo-4,5-dihydro-thiazol-2-yl}-methyl-amino)-pyrrolidin-1-yl]-acetamide]: the EC50 in experiment [1] turned out to be 15 nM. With `CN(CC(=O)O)C1=NC(=O)/C(=C/c2ccc3c(cnn3Cc3ccc(C(F)(F)F)cc3C(F)(F)F)c2)S1` [Compound 58, ({5-[1-(2,4-Bis-trifluoromethyl-benzyl)-1H-indazol-5-ylmethylene]-4-oxo-4,5-dihydro-thiazol-2-yl}-methyl-amino)-acetic acid], the EC50 in experiment [1] is 38 nM. The same measure, in the same setting: with `CN(C1=NC(=O)/C(=C/c2ccc3c(cnn3Cc3ccc(C(F)(F)F)cc3C(F)(F)F)c2)S1)[C@H]1C[C@@H](CO)N(CC(N)=O)C1` [Compound 59, 2-[4-({5-[1-(2,4-Bis-trifluoromethyl-benzyl)-1H-indazol-5-ylmethylene]-4-oxo-4,5-dihydro-thiazol-2-yl}-methyl-amino)-2-hydroxymethyl-pyrrolidin-1-yl]-acetamide] the figure was 27 nM; with `CONC(=O)[C@H]1C[C@H](N(C)C2=NC(=O)/C(=C/c3ccc4c(cnn4Cc4ccc(Cl)cc4C(F)(F)F)c3)S2)CN1` [Compound 60, 4-({5-[1-(4-Chloro-2-trifluoromethyl-benzyl)-1H-indazol-5-ylmethylene]-4-oxo-4,5-dihydro-thiazol-2-yl}-methyl-amino)-pyrrolidine-2-carboxylic acid methoxy-amide], 25 nM. In turn, `CN(CC(=O)O)C1=NC(=O)/C(=C/c2ccc3c(cnn3Cc3ccc(C(C)(C)O)cc3C(F)(F)F)c2)S1` [Compound 61, [(5-{1-[4-(1-Hydroxy-1-methyl-ethyl)-2-trifluoromethyl-benzyl]-1H-indazol-5-ylmethylene}-4-oxo-4,5-dihydro-thiazol-2-yl)-methyl-amino]-acetic acid] yielded a 50% effective concentration (EC50) in experiment [1] of 1200 nM. Turning to `CN(CC(=O)O)C1=NC(=O)/C(=C/c2ccc3c(cnn3Cc3ccc(O)cc3C(F)(F)F)c2)S1` [Compound 62, ({5-[1-(4-Hydroxy-2-trifluoromethyl-benzyl)-1H-indazol-5-ylmethylene]-4-oxo-4,5-dihydro-thiazol-2-yl}-methyl-amino)-acetic acid], in experiment [1], the EC50 was 17 nM.
